Data taken from article doi:10.1101/2020.09.01.277368v1, “Disulfiram inhibits M. tuberculosis growth by altering methionine pool, redox status and host-immune response” (biorxiv, 2020).

Target: T1, MetA (HSAT, homoserine acetyl transferase, Rv3341) (Mycobacterium tuberculosis, UniProt P9WJY9)
T1 construct: gene metXA
Experiment: endpoint DTNB CoA release assay
Assay type: biochemical

T1 sequence (P9WJY9 whole entry, looked up): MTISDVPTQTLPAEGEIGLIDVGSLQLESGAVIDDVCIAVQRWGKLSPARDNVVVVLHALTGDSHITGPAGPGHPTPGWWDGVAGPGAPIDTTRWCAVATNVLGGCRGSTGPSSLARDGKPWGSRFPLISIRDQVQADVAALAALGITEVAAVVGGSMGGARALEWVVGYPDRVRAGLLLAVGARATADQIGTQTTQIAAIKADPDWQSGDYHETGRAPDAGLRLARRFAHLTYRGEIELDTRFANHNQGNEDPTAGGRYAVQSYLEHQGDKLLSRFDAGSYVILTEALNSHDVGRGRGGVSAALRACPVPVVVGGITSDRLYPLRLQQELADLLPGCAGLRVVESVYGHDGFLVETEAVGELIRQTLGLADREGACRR

| SMILES | % inhibition at 100 μM |
| --- | --- |
| Oc1cc(CNC2CCCCC2)c(O)cc1CNC1CCCCC1 [NSC48443] | > 50% |
| COc1cc(-c2ccc(Nc3ccccc3C(=O)O)c(OC)c2)ccc1Nc1ccccc1C(=O)O [NSC73735] | > 50% |
| CCOC(=O)/C(C#N)=C1\SS/C(=C(/C#N)C(=O)OCC)S1 [NSC98363] | > 50% |
| O=Nc1c(-c2cccc([N+](=O)[O-])c2)nc2ncccn12 [NSC369066] | > 50% |
| Cc1ccc(S(=O)(=O)SC/C=C/CSS(=O)(=O)c2ccc(C)cc2)cc1 [NSC624158] | > 50% |
| C/C(=N\NC(=S)N(C)C)c1ccccn1.[Cu][Br] [NSC635448] | > 50% |
| Oc1cc(-n2cccn2)c(O)cc1-n1cccn1 [NSC645987] | > 50% |
